Data set [1] has as its system locomotor hyperactivity induced by amfoneric acid. Put plainly: Inhibitory activity against locomotor hyperactivity induced by amfoneric acid. Type of data set: in vivo, ddy male mouse. The note with it: Mus musculus, ip, 100 min, amfoneric acid 2.5 mg/kg s.c., total count over 100 minutes, read-out: Inhibition Rate; for inhibition in vivo at 30 mg/kg: 30 mg/kg intraperitoneal; for inhibition in vivo at 10 mg/kg: 10 mg/kg intraperitoneal, * 0.05 > P > 0.01, ** 0.01 > P > 0.001. How it is done:
The inhibitory activity against locomotor hyperactivity induced by amfoneric acid of the present compounds were determined according to a method described in the "Journal of Pharmacology & Experimental Therapeuties," Vol. 239, 124-131 (1986) by R. T. Matthews et al.
That is, to a ddy male mouse having a body weight of about 25g, were simultaneously administered amfoneric acid (2.5 mg/kg, subcutaneous administration) and the present compound (intraperitoneal administration),and the amount of movement was determined using an apparatus for determining the amount of movement of a mouse. The amount of movement was determined over 100 minutes, and the test of significance thereof was effected for the total count number for 100 minutes by a Manwhitnee test. The value was indicated as the inhibition rate based, as a control, upon the group to which 2.5 mg/kg of amfoneric acid was subcutaneously administered.

The target in a further data set is T1, σ-receptor (Rattus norvegicus, UniProt Q9R0C9).
T1 construct: all of the cerebra, other than the cerebellum, of Wistar male rats; from tissue; host or cells: rat brain (cerebra without cerebellum), crude washed membranes
T1 sequence (Q9R0C9 whole entry): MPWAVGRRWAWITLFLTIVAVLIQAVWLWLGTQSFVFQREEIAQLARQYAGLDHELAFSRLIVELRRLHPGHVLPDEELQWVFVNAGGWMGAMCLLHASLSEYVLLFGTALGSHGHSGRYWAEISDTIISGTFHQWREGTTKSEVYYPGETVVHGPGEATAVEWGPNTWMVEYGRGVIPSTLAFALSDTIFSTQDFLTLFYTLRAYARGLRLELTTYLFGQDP
Put plainly: Affinity to σ-receptor ([3H]3PPP binding, rat cerebra without cerebellum). The arrangement: species or system Wistar male rats. The note with it: 3 nM [3H]3PPP, 25° C., 90 minutes; non-specific: 1 μM haloperidol; read-out: Affinity to δ-Receptor IC50. How it is done: The affinities of the present compounds to the […] were determined according to a method described in the "Molecular Pharmacology," Vol. 32, 772-784 (1987).
That is, 50 mM of a Tris-HCl (pH=7.7) buffer solution was added to all of the cerebra, other than the cerebellum, of Wistar male rats, followed by homogenizing for […] in a Polytson® and then centrifugally separating same at 35000 G for 10 minutes. To the resultant precipitate was added the same buffer solution as used above, and the homogenizing and the centrafugalization were repeated. This procedure was repeated once more, and to the final precipitate was added a 50 mM Tris -HCl (pH=8.0) buffer solution and the receptor having a binding capability. In the binding experiments, 3nM [^3 H] propyl-3-(3-hydroxyphenyl) piperidine (i.e., [^3 H]3PPP) was used, and as a non-specific ligand, 1 μM haloperidol was used. After incubation at 25° C. for 90 minutes, the bound ligand was recovered by filtration and the determination was carried out. The filter used was a Whatmen GF/B filter treated with 0.5% polyethylene imine.

The test system of another data set is catalepsy. Put plainly: Catalepsy. Type of data set: in vivo, ddy male mice. The note with it: scored after 30, 60, 90, and 120 minutes. How it is done: To ddy male mice having a body weight of about 25 g was intraperitoneally administered the present compound and the catalepsy was determined after 30, 60, 90, and 120 minutes therefrom. The score of the catalepsy was as follows.
The forelegs of the mouse were placed on an aupper edge of a 5.5 cm height box and the time until the more fulled its forelegs down from the box or the mouse jumped up onto the top of the box was measured and the score was determined based upon the following standard.

The results in this text go back to patent US5158947A, “Condensed heterocyclic compounds and psychopharmaceutical composition containing same” (Suntory Limited, priority 1990, dated 1992).

As to `OC(CCCN1CCN(c2ncc(F)cn2)CC1)c1ccc(F)cc1` (centres unmarked) [BMY14802, reference compound], the inhibition in vivo at 30 mg/kg in data set [1] (* 0.05 > P > 0.01) turned out to be 51%.

As usually defined, the IC50 is the midpoint of a concentration-inhibition curve. Take `O=C1c2ccccc2OCCN1CCCCN1CCC(c2ccccc2)CC1` [Example 1, 4-(4-(4-phenyl)-1-piperidinyl)butyl-2,3,4,5-tetrahydro-1,4-benzoxazepin-5-one]: the IC50 on σ-receptor was 14.2 nM.

Turning to `O=C1c2ccccc2OCCN1CCCCN1CCC(c2ccc(Cl)cc2)CC1` [Example 2, 4-(4-(4-(4-chlorophenyl)-1-piperidinyl)butyl)-2,3,4,5-tetrahydro-1,4-benzoxazepin-5-one], on σ-receptor, the IC50 came out at 11.7 nM.

For `O=C1COc2ccccc2CN1CCCCN1CCC(c2ccccc2)CC1` [Example 4], on σ-receptor, the IC50 is 9.22 nM.

As to `O=C1COc2ccccc2CN1CCCCN1CCC(c2ccc(Cl)cc2)CC1` [Example 5], the IC50 on σ-receptor came out at 18.7 nM.

On to `O=C1COc2ccccc2C(=O)N1CCCCN1CCC(c2ccccc2)CC1` [Example 8, 4-(4-(4-phenyl)-1-piperidinyl)butyl-2,3,4,5-tetrahydro-1,4-benzoxazepine-3,5-dione], for which the Catalepsy entry with catalepsy (30 mg/kg intraperitoneal) is listed as “- (less than 1)”. For the same molecule, the 50% inhibitory concentration (IC50) on σ-receptor came out at 6.61 nM. Further, the inhibition in vivo at 30 mg/kg in data set [1] (* 0.05 > P > 0.01) is 73%.

In the case of `O=C1COc2ccccc2C(=O)N1CCCCN1CCC(c2ccc(Cl)cc2)CC1` [Example 9, 4-(4-(4-(4-chlorophenyl)-1-piperidinyl)butyl)-2,3,4,5-tetrahydro-1,4-benzoxazepine-3,5-dione], the IC50 at σ-receptor came to 4.73 nM.

With `O=C1COc2ccccc2C(=O)N1CCCCN1CC=C(c2ccccc2)CC1` [Example 12, 4-(4-(4-phenyl-1,2,3,6-tetrahydro)-1-pyridyl)butyl-2,3,4,5-tetrahydro-1,4-benzoxazepine-3,5-dione], the IC50 on σ-receptor was determined as 12.1 nM.

For the molecule `O=C1COc2ccccc2C(=O)N1CCCCN1CCC(c2ccccn2)CC1` [Example 14, 4-(4-(4-(2-pyridyl)-1-piperidinyl)butyl)-2,3,4,5-tetrahydro-1,4-benzoxazepine-3,5-dione], the IC50 on σ-receptor turned out to be 17.8 nM.

For the molecule `O=C1CSc2ccccc2C(=O)N1CCCCN1CCC(c2ccccc2)CC1` [Example 17, 4-(4-(4-phenyl)-1-piperidinyl)butyl-2,3,4,5-tetrahydro-1,4-benzothiazepine-3,5-dione], on σ-receptor, the half-maximal inhibitory concentration (IC50) turned out to be 4 nM.

Take `O=C1CNc2ccccc2C(=O)N1CCCCN1CCC(c2ccccc2)CC1` [Example 18, 4-(4-(4-phenyl)-1-piperidinyl)butyl-2,3,4,5-tetrahydro-1,4-benzodiazepine-3,5-dione]: the Catalepsy entry in the data set with catalepsy (10 mg/kg intraperitoneal) was “- (less than 1)”. Also, the IC50 at σ-receptor came out at 14.1 nM. The inhibition in vivo at 1 mg/kg in data set [1] (1 mg/kg intraperitoneal, * 0.05 > P > 0.01) turned out to be 65%. Further, the inhibition in vivo at 10 mg/kg in data set [1] was 90%.

Take `O=C1CNc2ccccc2C(=O)N1CCCCN1CCC(c2ccc(Cl)cc2)CC1` [Example 19]: the Catalepsy result in the data set with catalepsy (20 mg/kg intraperitoneal) is “- (less than 1)”. For the same molecule, the IC50 on σ-receptor was determined as 16.1 nM. In data set [1], the inhibition in vivo at 10 mg/kg came to 53%.

For the molecule `CN1CC(=O)N(CCCCN2CCC(c3ccccc3)CC2)C(=O)c2ccccc21` [Example 21, 1-methyl-4-(4-(4-phenyl) -1-piperidinyl)butyl-2,3,4,5-tetrahydro-1,4-benzodiazepine-3,5-dione], the Catalepsy entry with catalepsy (30 mg/kg intraperitoneal) is reported as “- (less than 1)”. For the same molecule, on σ-receptor, the IC50 stood at 13.7 nM.

As to `O=C1CCc2ccccc2C(=O)N1CCCCN1CCC(c2ccccc2)CC1` [Example 22, 2-(4-(4-phenyl)-1-piperidinyl)butyl-1,3,4,5-tetrahydro-2-benzazepine-1,3-dione], on σ-receptor, the IC50 was determined as 3.74 nM. For the same molecule, the inhibition in vivo at 10 mg/kg in data set [1] amounted to 52%.

For `O=C1CCc2ccccc2C(=O)N1CCCCN1CCC(c2ccc(Cl)cc2)CC1` [Example 23, 2-(4-(4-(4-chlorophenyl)-1-piperidinyl)butyl)-1,3,4,5-tetrahydro-2-benzazepine-1,3-dione], the IC50 at σ-receptor stood at 6.4 nM.

As to `O=C1c2ccccc2OCCN1CCCCCN1CCC(c2ccccc2)CC1` [Example 26, 4-(5-(4-phenyl)-1-piperidinyl)pentyl-2,3,4,5-tetrahydro-1,4-benzoxazepin-5-one], the Catalepsy result with catalepsy (30 mg/kg intraperitoneal) was “- (less than 1)”. For the same molecule, the concentration for half-maximal inhibition (IC50) at σ-receptor was determined as 10.9 nM. Also, the inhibition in vivo at 10 mg/kg in data set [1] amounted to 65%.

Take `O=C1c2ccccc2OCCN1CCCCCN1CCC(c2ccc(Cl)cc2)CC1` [Example 27, 4-(5-(4-(4-chlorochenyl)1-piperidinyl)pentyl)-2,3,4,5-tetrahydro-1,4-benzoxazepin-5-one]: the IC50 at σ-receptor worked out at 10.6 nM.

Consider `O=C1COc2ccccc2CN1CCCCCN1CCC(c2ccccc2)CC1` [Example 28, 4-(5-(4-phenyl)-1-piperidinyl)pentyl-2,3,4,5-tetrahydro-1,4-benzoxazepin-3-one], for which the IC50 on σ-receptor worked out at 8.02 nM.

Consider `O=C1COc2ccccc2CN1CCCCCN1CCC(c2ccc(Cl)cc2)CC1` [Example 29], for which the Catalepsy entry in the data set on catalepsy (30 mg/kg intraperitoneal) was “- (less than 1)”. Besides, the IC50 on σ-receptor was determined as 10.3 nM. The inhibition in vivo at 10 mg/kg in data set [1] came out at 60%.

As to `O=C1COc2ccccc2C(=O)N1CCCCCN1CCC(c2ccccc2)CC1` [Example 30, 4-(5-(4-phenyl)-1-piperidinyl)pentyl-2,3,4,5-tetrahydro-1,4-benzoxazepine-3,5-dione], in the data set with catalepsy (30 mg/kg intraperitoneal), the Catalepsy result is given as “- (less than 1)”. The IC50 on σ-receptor was 4.73 nM. Further, the inhibition in vivo at 30 mg/kg in data set [1] (* 0.05 > P > 0.01) was 70%.

Turning to `O=C1COc2ccccc2C(=O)N1CCCCCN1CCC(c2ccc(Cl)cc2)CC1` [Example 31], in the data set on catalepsy (30 mg/kg intraperitoneal), the Catalepsy result was “- (less than 1)”. The IC50 on σ-receptor turned out to be 7.82 nM.

`O=C1CSc2ccccc2C(=O)N1CCCCCN1CCC(c2ccccc2)CC1` [Example 32, 4-(5-(4-phenyl)-1-piperidinyl)pentyl-2,3,4,5-tetrahydro-1,4-benzothiazepine-3,5-dione]: the half-maximal inhibitory concentration (IC50) at σ-receptor stood at 3.95 nM.

`O=C1CSc2ccccc2C(=O)N1CCCCCN1CCC(c2ccc(Cl)cc2)CC1` [Example 33]: the IC50 on σ-receptor was 17.6 nM.

Turning to `O=C1CCc2ccccc2C(=O)N1CCCCCN1CCC(c2ccccc2)CC1` [Example 36, 2-(5-(4-phenyl)-1-piperidinyl)pentyl-1,3,4,5-tetrahydro-2-benzazepine-1,3-dione], on σ-receptor, the IC50 is 3.62 nM.

For `O=C1CCc2ccccc2C(=O)N1CCCCCN1CCC(c2ccc(Cl)cc2)CC1` [Example 37, 2-(5-(4-(4-chlorophenyl)-1-piperidinyl)pentyl)-1,3,4,5-tetrahydro-2-benzazepine-1,3-dione], the Catalepsy entry in the data set with catalepsy (30 mg/kg intraperitoneal) is on record as “- (less than 1)”. For the same molecule, on σ-receptor, the half-inhibitory concentration (IC50) came out at 8.91 nM. Besides, the inhibition in vivo at 10 mg/kg in data set [1] was found to be 74%.

Regarding `O=C(CCCN1CCC(O)(c2ccc(Cl)cc2)CC1)c1ccc(F)cc1` [Haloperidol, reference compound], the Catalepsy entry with catalepsy (0.1 mg/kg intraperitoneal, control) is listed as “++ (more than 2 but less than 3)”.
